Laboratory results reported in patent US10519159B2, “Antiviral aliphatic ester prodrugs of tenofovir” (Merck Sharp & Dohme Corp., priority 2016, dated 2019).
Where two headings read alike, the source gives them in different places.

Experiments:
[1] = system: HIV-1 (H9/IIIB strain); assay: Multiple round HIV-1 infection assay (Viking assay) in MT4-GFP cells; assay type: cell-based
Procedure: Assessing Antiviral Potency in a Multiple Round HIV-1 Infection Assay (Viking Assay)
The antiviral activity of the tenofovir prodrugs of the Examples herein was assessed in an assay that measures the rate of replication of HIV in cell culture, termed the Viking assay (Viral KINetics in Green cells) and performed as follows. HIV-1 replication was monitored using MT4-gag-GFP clone D3 (hereafter designated MT4-GFP), which are MT-4 cells modified to harbor a GFP reporter gene, the expression of which is dependent on the HIV-1 expressed proteins tat and rev. Productive infection of an MT4-GFP cell with HIV-1 results in GFP expression approximately 24 h post-infection. MT4-GFP cells were maintained at 37° C./5% CO2/90% relative humidity in RPMI 1640 supplemented with 10% fetal bovine serum, 100 U/ml penicillin/streptomycin, and 400 μg/ml G418 to maintain the reporter gene. For infections, MT4-GFP cells were placed in the same medium lacking G418 and infected overnight with HIV-1 (H9/IIIB strain) virus at an approximate multiplicity of infection of 0.01 in the same incubation conditions. Cells were then washed and re-suspended in either RPMI 1640 supplemented with 10% or 50% normal human serum (NHS) at 1.6×10^5 cells/mL (10% NHS or 50% NHS, respectively). Compound plates were prepared by dispensing compounds dissolved in DMSO into wells of 384 well poly-D-lysine-coated plates (0.2 μl/well) using an ECHO acoustic dispenser. Each compound was tested in a 10-point serial 3-fold dilution (typical final concentrations: 8.4 μM-0.42 nM). Controls included no inhibitor (DMSO only) and a combination of three antiviral agents (efavirenz, indinavir, an in-house integrase strand transfer inhibitor at final concentrations of 4 μM each). Cells were added (50 μL/well) to compound plates and the infected cells were maintained at 37° C./5% CO2/90% relative humidity.
Infected cells were quantified at two time points, ˜48 h and ˜72 h post-infection, by counting the number of green cells in each well using an Acumen eX3 scanner. The increase in the number of green cells over ˜24 h period gives the reproductive ratio, R0, which is typically 5-15 and has been shown experimentally to be in logarithmic phase (data not shown). Inhibition of R0 is calculated for each well, and IC50s determined by non-linear 4-parameter curve fitting.

[2] = Prodrug stability assay in bio-relevant media (FaSSIF with pancreatin), GI tract stability; assay type: in vitro ADME; conditions: Table 1; % parent: HPLC peak area of prodrug at 5 h / 0 h, 0.5 mg/mL pancreatin in FaSSIF, 37° C.
Procedure: Prodrug Stability Assay in Bio-Relevant Media
The following assay was employed to evaluate the stability of the prodrugs in simulated gastrointestinal tract conditions. Preparation of fasted state simulated intestinal fluid (FaSSIF) using Phares SIF Powder was carried out according to protocols from Phare Drug Delivery AG (Baselland, Switzerland). For sample preparation, 10 μL stock solutions (10 mM) of prodrug substance in DMSO was added to 990 μL of 0.5 mg/mL Pancreatin solution (Fisher CAS #8049-47-6) in FaSSIF. Two samples were prepared for each compound. If the sample was a clear solution, it was directly analyzed by HPLC. If the sample was not clear, the sample was […], maintained at 37° C. and observed 5 h later. If the sample was clear, HPLC analysis was directly performed. If the sample was still not clear, the sample was diluted with 100% ACN and assayed by HPLC. All the samples were vortexed for 3 min and observed before injection. For the diluted samples, the area is multiplied by a dilution factor when the data is analyzed. The analysis was carried out with an Agilent 1100 series HPLC with autosampler. The column was a Poroshell 120 EC-C18, 4.6×50 mm, 2.7 μm. The flow rate was 1.8 mL/min, and the injection volume was 5 or 10 μL. UV detection was in the range 210-400 nm. The mobile phase consisted of solvent A (water plus 10 mM tetrabutylammonium bromide) and solvent B (acetonitrile) with a gradient of: 90% solvent A at 0 min, changing to 95% solvent B over 6 min, maintaining for 1.5 min, then reverting to 90% solvent A over 1.6 min. The HPLC peak area of the prodrug at 5 h was divided by the HPLC peak area of the prodrug at 0 h, to generate the % claimed parent ratio, which is summarized in Table 1 for gastrointestinal (GI) Tract stability.

[3] = Table 1, MT4-GFP cells infected with HIV-1 H9/IIIB, 10% normal human serum, read-out: Viking, IC50 (10% NHS)
[4] = Table 1, MT4-GFP cells infected with HIV-1 H9/IIIB, 50% normal human serum, read-out: Viking, IC50 (50% NHS)
[5] = Human immunodeficiency virus 1, IIIB, Table 1, MT4-GFP cells infected with HIV-1 H9/IIIB, 10% normal human serum, read-out: Viking, IC50 (10% NHS)
[6] = Human immunodeficiency virus 1, IIIB, Table 1, MT4-GFP cells infected with HIV-1 H9/IIIB, 50% normal human serum, read-out: Viking, IC50 (50% NHS)
[7] = Human immunodeficiency virus 1, IIIB, Table 2, L-Ala comparison compounds, MT4-GFP cells, HIV-1 H9/IIIB, 10% normal human serum, read-out: Viking, IC50 (10% NHS)

Compound | IC50 [1, 3] | IC50 [1, 4] | also measured
CCCOC(=O)C(C)(C)NP(=O)(CO[C@H](C)Cn1cnc2c(N)ncnc21)OCC[C@H](C)C(=O)OC(C)C (single isomer, unassigned) [Example 6B] | 73.1 nM | 246 nM | –
CCCOC(=O)C(C)(C)N[P@@](=O)(CO[C@H](C)Cn1cnc2c(N)ncnc21)OCc1ccc(F)cc1C(=O)OC(C)C (single isomer, unassigned) [Example 7A] | – | – | IC50 [1, 5]: 107 nM; IC50 [1, 6]: 654 nM
CCCOC(=O)C(C)(C)N[P@](=O)(CO[C@H](C)Cn1cnc2c(N)ncnc21)OCc1ccc(F)cc1C(=O)OC(C)C (single isomer, unassigned) [Example 7B] | – | – | GI Tract stability [2]: 95.0%; IC50 [1, 5]: 1.08 nM; IC50 [1, 6]: 5.55 nM
CCCCCOC(=O)C(C)(C)NP(=O)(CO[C@H](C)Cn1cnc2c(N)ncnc21)OCCC(=O)OC(C)C (single isomer, unassigned) [Example 8A] | 0.92 nM | 11.3 nM | GI Tract stability [2]: 92.12%
CCCCCOC(=O)C(C)(C)NP(=O)(CO[C@H](C)Cn1cnc2c(N)ncnc21)OCCC(=O)OC(C)C (single isomer, unassigned) [Example 8B] | 7.59 nM | 49.8 nM | GI Tract stability [2]: 99.59%
CC(C)OC(=O)C(C)(C)COP(=O)(CO[C@H](C)Cn1cnc2c(N)ncnc21)NC(C)(C)C(=O)OC(C)C (single isomer, unassigned) [Example 9A] | 173 nM | 562 nM | –
CC(C)OC(=O)C(C)(C)COP(=O)(CO[C@H](C)Cn1cnc2c(N)ncnc21)NC(C)(C)C(=O)OC(C)C (single isomer, unassigned) [Example 9B] | 8.34 nM | 26.4 nM | GI Tract stability [2]: 98.18%
CC(C)OC(=O)C[C@H](C)OP(=O)(CO[C@H](C)Cn1cnc2c(N)ncnc21)NC(C)(C)C(=O)OC(C)C (single isomer, unassigned) [Example 10B] | 284 nM | 1070 nM | –
CCCOC(=O)C(C)(C)NP(=O)(CO[C@H](C)Cn1cnc2c(N)ncnc21)OCCc1cccc(C(=O)OC(C)C)c1 (single isomer, unassigned) [Example 11B] | 45.8 nM | 302 nM | –
CCCSC(=O)C(C)(C)NP(=O)(CO[C@H](C)Cn1cnc2c(N)ncnc21)OCCC(=O)OC(C)C (single isomer, unassigned) [Example 13B] | 99.6 nM | 248 nM | –
CCCOC(=O)C(C)(C)NP(=O)(CO[C@H](C)Cn1cnc2c(N)ncnc21)OCc1cccc(C(=O)OC(C)C)c1 (single isomer, unassigned) [Example 14B] | 16.7 nM | 114 nM | –
CCCOC(=O)[C@H](C)NP(=O)(CO[C@H](C)Cn1cnc2c(N)ncnc21)OCCC(=O)OC(C)C (some centres unmarked) [Compound 15B, reference compound] | – | – | IC50 [1, 7]: 340 nM
CCCOC(=O)[C@H](C)NP(=O)(CO[C@H](C)Cn1cnc2c(N)ncnc21)OCC[C@H](C)C(=O)OC(C)C (some centres unmarked) [Compound 16B, reference compound] | – | – | IC50 [1, 7]: 730 nM
CCCOC(=O)[C@H](C)NP(=O)(CO[C@H](C)Cn1cnc2c(N)ncnc21)OCc1ccc(F)cc1C(=O)OC(C)C (some centres unmarked) [Compound 17B, reference compound] | – | – | IC50 [1, 7]: 570 nM
